Values of other authors in patent US7737133B2, “Formulations and methods of treating inflammatory bowel disease” (AGI Therapeutics Ltd., priority 2003, dated 2010).

Key:
[1] = reportedly; Ginsberg et al.
[2] = compared with 5-ASA

systemic absorption of 5-ASA or its acetylated form (after cleavage of olsalazine in the colon) | absorbed intact from the gut (olsalazine, conventional powder capsule) [%] | Structure (SMILES) | nephrotoxicity [1] | aqueous stability [2]
– | – | Nc1ccc(C(=O)O)c(O)c1 [Example 4-ASA, 4-aminosalicylic acid] | absence of nephrotoxicity | higher aqueous stability
approximately 20% | 2.4 | O=C(O)c1cc(N=Nc2ccc(O)c(C(=O)O)c2)ccc1O [olsalazine, 5,5′-azo-bis salicylic acid] | – | –
